Assay results published in a melting point compilation (Tetko et al.; mined from patent text by program, amines drawn as free bases though some values may be those of a salt).

SMILES | melting point [°C]
CC(C)c1nc2ccccc2c(=O)n1NC(=O)C(C)c1ccccc1 (stereo unspecified) | 48 to 55
NS(=O)(=O)c1ccc(-c2noc(-c3cnn4c(C(F)F)cc(-c5ccc(Cl)cc5)nc34)n2)s1 | 259
OCc1cc(CCCCCCCOc2ccc(C3=NCCO3)cc2)on1 | 122 to 124
Cc1ccc(C2(Br)C(=O)NC(=O)NC2=O)cc1 | 210 to 213
Cc1ccc2c(=O)nc(-c3cc(S(C)(=O)=O)cc(CCC(=O)OC(C)(C)C)n3)sc2c1 | 178
Cc1c(C)c2c(c(C)c1N)CC(C)(CI)O2 (stereo unspecified) | 105 to 107
Fc1ccc(-n2c(OCCN3CCCC3)cc3ccc(Cl)cc32)cc1 | 60 to 62
CCCNc1c(C#N)cnn1-c1ccc(Cl)c(Cl)c1Cl | 95 to 98
CCc1ccc(N(Cc2ccc(N3CCOCC3)cc2)C(=O)Nc2c(C(C)C)cccc2C(C)C)cc1 | 159 to 161
CC(C)C1NCC(=O)N1CC(=O)NCC(N)=O (stereo unspecified) | 65 to 70
CC[C@H](C)CNC(=O)[C@@H](C[C@H](O)[C@H](CC1CCCCC1)NC(=O)[C@H](Cc1cscn1)NC(=O)[C@@H](CC(=O)N1CCOCC1)Cc1ccccc1)C(C)(C)O | 80 to 82
COC(=O)/C=C/COc1cc(-n2ncc(C(F)(F)F)c(C)c2=O)c(F)cc1Cl | 153
CCCCCCC(c1nccn1C)n1cnc2cc(-c3ccccc3-c3nn[nH]n3)ccc21 (stereo unspecified) | 88 to 93
Cc1nn(-c2ccccc2)c(=O)c2c1c1c(Br)cccc1n2C | 189 to 190
Nc1ccc2c(c1)nc(/C=C/c1ccccc1)n2-c1ccccn1 | 146 to 148
Cc1ccsc1C(C)N(O)C(N)=O (stereo unspecified) | 131
COC(=O)C1CC2(CN1C(=O)CN(C)CC(=O)C(Cc1ccccc1)NC(=O)c1ccccc1)SCCS2 (stereo unspecified) | 60 to 62
CC(C)CCOc1ccc(OCn2cnc(Cl)c2Cl)cc1 | 105 to 108
O=C(NCCO)c1ccnc(-c2cccc3cc(Cc4cc(F)cc(Cl)c4)sc23)c1 | 172 to 173
Cc1ccccc1C(=O)Nc1ccc(C(=O)N2CCCC(n3cccc3)c3ccccc32)cc1 (stereo unspecified) | 208 to 210
CN=C(NCCCc1nc2cc(C3=NNC(=O)CC3C)ccc2[nH]1)NC(=O)c1ccccc1 (stereo unspecified) | 270
C[Si](C)(C)C/C=C/[C@@H](Cc1ccccc1)C(=O)N1C(=O)OC[C@H]1Cc1ccccc1 | 132 to 135

Next, values leading:

melting point [°C] | SMILES
140 to 142 | C=C(C)c1cc(NC(=O)N2CCN(c3cc(C)cc(C)c3)CC2)c(OC)nc1C
121 to 140 | CCN(CC)Cc1cc(C2(c3cccc(-c4cccnc4F)c3)N=C(N)N(C)C2=O)cn1CCF (stereo unspecified)
69.5 to 71 | CONS(=O)(=O)c1ccc(Cl)c([N+](=O)[O-])c1
141 to 143 | O=C(CCCN1CCC(Cc2ccccc2)CC1)c1ccc2c(c1)C(=O)c1cc(C(=O)CCCN3CCC(Cc4ccccc4)CC3)ccc1-2
69 to 69.5 | C[C@H](CSC(=O)c1ccccc1)C(=O)N1CSC[C@H]1C(=O)OCOC(=O)C(C)(C)C
274 to 275 | Nc1nc(-c2ccc(C(=O)N3CCN(S(=O)(=O)c4ccc5cc(Br)ccc5c4)CC3)cc2)c[nH]1
250 to 253 | O=C(O)C=C1SC(=Nc2cccc3ccccc23)N(c2cccc3ccccc23)C1=O
235 to 237 | CN1c2ccccc2NC(=O)c2cccnc21
167 to 169 | O=C(NCCCn1ccnc1-c1ccccc1)c1cc2ccccc2[nH]1
159 to 160 | O=C(O)[C@H]1[C@H](CS)N(Cc2ccccc2)C(=O)N1Cc1ccccc1
160 to 161 | O=[N+]([O-])c1cnc(-c2ccccc2)nc1Cl
70 to 72 | c1ccc(OCCSCc2nnc(-c3ccc(OCCN4CCOCC4)cc3)o2)cc1
120 to 124 | Cc1c(SCCN2CCOCC2)ccnc1CSc1nc2cc(C(=O)O)ccc2[nH]1
241 to 244 | CC(C)(C)NC(=O)N1Cc2c(-c3ccc(F)cc3)ncn2-c2ccccc21
